From article PMC11472313, “Development of Fragment-Based Inhibitors of the Bacterial Deacetylase LpxC with Low Nanomolar Activity” (Journal of Medicinal Chemistry, 2024)
≈ marks a conversion by molar mass, not a printed value. Where “and” joins values, the source holds several entries; their conditions need not be identical. Identical values can stand only once.

Tests used:
[1] = system: E. coli BL21(DE3); experiment: MIC, broth microdilution; format: cell-based; settings: 20 h, 37 °C, LB; for MIC: Escherichia coli
Summary of the method: (§1)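 LB broth microdilution, inoculum 5 × 10^5 cfu mL^–1, 5% DMSO, 2-fold compound series 64–0.016 μg mL^–1 final, incubated 20 h at 37 °C. MIC was the lowest concentration preventing visible growth, from at least three runs on separate days.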

[2] = system: E. coli D22; experiment: MIC, broth microdilution; format: cell-based; settings: Escherichia coli, 20 h, 37 °C, LB
Summary of the method: as §1

[3] = system: E. coli ATCC 35218; experiment: disc diffusion assay; format: cell-based; settings: 0.15 μmol per 6 mm disc
Experimental: (§2) In the performed disc diffusion assays, indole derivatives (S)-13h, (S)-13i, and (S)-13j caused promising halos of growth inhibition.
(§3) The disc diffusion assays against E. coli TOP10 (Thermo Fisher, Waltham, USA), E. coli ATCC 35218, K. pneumoniae ATCC 700603, and P. aeruginosa ATCC 27853 were performed as follows: the bacteria were grown overnight on a Columbia blood agar plate (Oxoid, Basingstoke, UK), and one colony was suspended in sterile saline to yield a suspension of 0.5 McFarland standard. Using a sterile swab, the suspension was spread evenly onto Mueller–Hinton agar (Oxoid, Basingstoke, UK). 0.15 μmol of each compound (dissolved in 10 μL DMSO) was applied onto circular 6 mm diameter filter paper disks, which were then placed on the agar. After incubating the agar plates for 20 h at 37 °C, the diameter of the zone of growth inhibition was measured for each compound.

[4] = system: E. coli TOP10; experiment: disc diffusion assay; format: cell-based; settings: 0.15 μmol per 6 mm disc
Experimental: as §2, §3

[5] = system: P. aeruginosa ATCC 27853; experiment: disc diffusion assay; format: cell-based; settings: 0.15 μmol per 6 mm disc
Experimental: as §2, §3

[6] = biological target: T1, E. coli LpxC C63A (Escherichia coli, UniProt P0A725, C63A); experiment: fluorescence-based E. coli LpxC C63A enzyme inhibition assay; format: biochemical; settings: Ki E. coli LpxC C63A, from IC50 via Cheng–Prusoff
T1 construct: made in house; host or cells: E. coli BL21(DE3)
T1 sequence (P0A725 whole entry C63A): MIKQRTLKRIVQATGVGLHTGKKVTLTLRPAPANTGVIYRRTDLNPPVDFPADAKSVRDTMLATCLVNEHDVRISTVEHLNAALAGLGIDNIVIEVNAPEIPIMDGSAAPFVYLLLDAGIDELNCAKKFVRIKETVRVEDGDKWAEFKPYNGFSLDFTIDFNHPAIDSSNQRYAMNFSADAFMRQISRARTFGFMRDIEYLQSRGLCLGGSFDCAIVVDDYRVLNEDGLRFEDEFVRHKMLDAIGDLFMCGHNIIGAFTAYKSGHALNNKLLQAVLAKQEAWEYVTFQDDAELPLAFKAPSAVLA
Summary of the method: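 Purified E. coli LpxC C63A (15 nM) was incubated with 25 µM UDP-3-O-[(R)-3-hydroxymyristoyl]-GlcNAc in MES pH 6.0 buffer (2% DMSO) for 30 min at 37 °C. Compounds ranged from 20 nM to 20 µM. Product was derivatized with o-phthaldialdehyde/2-mercaptoethanol and read by fluorescence (ex 340/em 460), with IC50 converted to Ki via Cheng–Prusoff.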

[7] = system: E. coli BL21(DE3); experiment: disc diffusion assay; format: cell-based; settings: 0.15 μmol per 6 mm disc
[8] = system: E. coli D22; experiment: disc diffusion assay; format: cell-based; settings: 0.15 μmol per 6 mm disc
[9] = biological target: T2, LasB (Pseudomonas aeruginosa, UniProt Q02RJ6); experiment: FRET-based LasB in vitro inhibition assay; format: biochemical, P. aeruginosa PA14; settings: for inhibition at 20 µM: read-out: LasB Inhibition at 20 μM
T2 construct: The elastase LasB of P. aeruginosa is a secreted metalloprotease; endogenous in cells; host or cells: P. aeruginosa PA14 culture supernatant
T2 sequence (Q02RJ6 198-498): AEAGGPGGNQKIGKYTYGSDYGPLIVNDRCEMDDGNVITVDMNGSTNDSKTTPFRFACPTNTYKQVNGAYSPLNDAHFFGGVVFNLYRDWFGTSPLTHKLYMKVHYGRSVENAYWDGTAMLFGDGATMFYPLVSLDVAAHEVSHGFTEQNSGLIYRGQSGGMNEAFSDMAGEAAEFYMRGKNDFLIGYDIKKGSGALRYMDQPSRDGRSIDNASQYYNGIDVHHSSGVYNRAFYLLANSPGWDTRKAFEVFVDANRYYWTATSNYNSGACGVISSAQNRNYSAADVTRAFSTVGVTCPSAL
Summary of the method: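 FRET-based inhibition assay using LasB purified from P. aeruginosa PA14 culture supernatant; fluorescence read-out.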

Row | SMILES | MIC E. coli BL21(DE3) [1] | MIC [1] | MIC [2] | Inhibition zone E. coli ATCC 35218 [3] | Inhibition zone E. coli TOP 10 [4] | Inhibition zone P. aeruginosa ATCC 27853 [5] | Ki [6] | Inhibition zone E. coli BL21(DE3) [7] | Inhibition zone E. coli D22 [8] | LasB Inhibition at 20 μM [9] | inhibition at 20 µM [9] | IC50 [9]
1 | O=C(NC[C@H](OCc1ccc(C#Cc2ccc(CN3CCOCC3)cc2)cc1)C(=O)NO)c1c[nH]c2ccccc12 [(S)-13h] | 1.0 µg/mL (≈ 1.81 µM) | 1 to 4 µg/mL (≈ 1.81 to 7.24 µM) | 0.031 µg/mL (≈ 0.0561 µM) | 19.0 ± 1.0 mm | 18.7 ± 5.8 mm | 7.0 ± 1.0 mm | 10.7 ± 1.2 nM | 19.7 ± 1.6 mm | 29.3 ± 1.6 mm | little to no inhibitory activity | 25.2 ± 5.6% | –
2 | O=C(NC[C@H](OCc1ccc(C#Cc2ccc(CN3CCOCC3)cc2)cc1)C(=O)NO)c1ccc2[nH]ccc2c1 [(S)-13j] | 2.0 µg/mL (≈ 3.62 µM) | 1 to 4 µg/mL (≈ 1.81 to 7.24 µM) | 0.031 µg/mL (≈ 0.0561 µM) | 21.0 ± 1.0 mm | 22.3 ± 3.8 mm | 8.3 ± 0.6 mm | 9.5 nM and 9.45 nM | 20.0 ± 1.0 mm | 29.0 ± 1.6 mm | little to no inhibitory activity | < 10% | –
3 | O=C(NC[C@H](OCc1ccc(C#Cc2ccc(CN3CCOCC3)cc2)cc1)C(=O)NO)c1ccc[nH]1 [(S)-13k] | 4.0 µg/mL (≈ 7.96 µM) | 4 to 8 µg/mL (≈ 7.96 to 15.9 µM) | 0.063 µg/mL (≈ 0.125 µM) | 23.0 ± 1.4 mm | 27.0 ± 2.8 mm | 9.0 ± 1.4 mm | 97.1 ± 9.4 nM | 23.3 ± 0.6 mm | >30 mm | – | 22.4 ± 3.1% | –
4 | O=C(NC[C@H](OCc1ccc(C#Cc2ccc(CN3CCOCC3)cc2)cc1)C(=O)NO)c1cc[nH]n1 [(S)-13l] | 4.0 µg/mL (≈ 7.94 µM) | 4 to 8 µg/mL (≈ 7.94 to 15.9 µM) | 0.063 µg/mL (≈ 0.125 µM) | 25.5 ± 0.7 mm | 30.5 ± 0.7 mm | 12.0 ± 0 mm | 80.9 ± 9 nM | 24.7 ± 0.6 mm | >30 mm | little to no inhibitory activity | 11.6 ± 0.7% | –
5 | O=C(NC[C@H](OCc1ccc(C#Cc2ccc(CN3CCOCC3)cc2)cc1)C(=O)NO)c1cc(-c2ccccc2)[nH]n1 [(S)-13m] | 8.0 µg/mL (≈ 13.8 µM) | 4 to 8 µg/mL (≈ 6.9 to 13.8 µM) | 0.063 µg/mL (≈ 0.109 µM) | 13.0 ± 1.7 mm | 14.7 ± 0.6 mm | <6 mm | 85.2 ± 21.7 nM | 11.3 ± 1.6 mm | 24.5 ± 1.8 mm | little to no inhibitory activity | < 10% | –
6 | Cc1noc(C)c1C(=O)NC[C@H](OCc1ccc(C#Cc2ccc(CN3CCOCC3)cc2)cc1)C(=O)NO [(S)-13n] | – | 16 µg/mL (≈ 30 µM) | 0.13 µg/mL (≈ 0.244 µM) | 20.0 ± 1.7 mm | 24.0 ± 0 mm | <6 mm | 127 ± 40 nM | 20.8 ± 1.1 mm | >30 mm | – | 92.7 ± 0.7% | 1800 ± 150 nM
